Measurements reported in ChEMBL document CHEMBL6182847, “Design, synthesis, and biological evaluation of novel aminopyrimidine derivatives as EGFR inhibitors” (Bioorg Med Chem Lett, 2025).

Experiments:
[1] = test system: Epidermal growth factor receptor (Homo sapiens), P00533 [L858R,T790M,C797S]; settings: dose 500.0 nM
Description: Inhibition of EGFR L858R/T790M/C797S mutant (unknown origin) at 500 nM relative to control

[2] = target: Epidermal growth factor receptor (Homo sapiens, UniProt P00533, C797S/L858R/T790M); test: Inhibition of EGFR L858R/T790M/C797S mutant (unknown origin)
[3] = target: Epidermal growth factor receptor (Homo sapiens, UniProt P00533); test: Inhibition of wild-type EGFR (unknown origin)
Chain of Epidermal growth factor receptor (Homo sapiens, UniProt P00533) (P00533 whole entry): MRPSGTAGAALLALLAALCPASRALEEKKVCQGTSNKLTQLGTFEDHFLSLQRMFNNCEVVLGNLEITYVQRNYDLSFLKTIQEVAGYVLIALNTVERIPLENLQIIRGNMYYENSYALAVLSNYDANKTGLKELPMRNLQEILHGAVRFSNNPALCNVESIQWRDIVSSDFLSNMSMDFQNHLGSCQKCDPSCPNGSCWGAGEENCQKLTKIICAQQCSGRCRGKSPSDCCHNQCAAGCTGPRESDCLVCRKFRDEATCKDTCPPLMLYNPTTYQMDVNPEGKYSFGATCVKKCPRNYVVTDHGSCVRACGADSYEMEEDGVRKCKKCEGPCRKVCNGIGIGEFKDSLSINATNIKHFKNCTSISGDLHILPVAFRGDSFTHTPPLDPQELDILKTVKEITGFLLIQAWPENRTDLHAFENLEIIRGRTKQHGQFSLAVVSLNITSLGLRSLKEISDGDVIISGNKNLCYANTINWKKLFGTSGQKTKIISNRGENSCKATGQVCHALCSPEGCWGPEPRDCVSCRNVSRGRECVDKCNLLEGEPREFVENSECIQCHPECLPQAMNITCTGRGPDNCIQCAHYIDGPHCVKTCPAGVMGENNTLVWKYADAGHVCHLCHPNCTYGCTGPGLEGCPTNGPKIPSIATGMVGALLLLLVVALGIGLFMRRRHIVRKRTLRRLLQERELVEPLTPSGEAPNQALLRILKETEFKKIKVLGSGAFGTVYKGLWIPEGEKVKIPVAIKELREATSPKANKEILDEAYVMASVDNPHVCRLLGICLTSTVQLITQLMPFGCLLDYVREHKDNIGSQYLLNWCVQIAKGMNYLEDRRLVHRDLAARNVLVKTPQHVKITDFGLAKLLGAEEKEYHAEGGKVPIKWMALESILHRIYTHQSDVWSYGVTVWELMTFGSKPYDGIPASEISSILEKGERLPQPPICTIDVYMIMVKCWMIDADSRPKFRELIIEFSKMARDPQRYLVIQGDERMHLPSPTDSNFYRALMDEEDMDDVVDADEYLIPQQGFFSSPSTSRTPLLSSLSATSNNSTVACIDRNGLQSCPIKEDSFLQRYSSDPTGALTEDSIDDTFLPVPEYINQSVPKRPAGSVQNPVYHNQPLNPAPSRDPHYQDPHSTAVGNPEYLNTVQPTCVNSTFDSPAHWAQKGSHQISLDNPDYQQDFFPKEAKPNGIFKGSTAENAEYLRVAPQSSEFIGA

cells = settings: Mus musculus, Ba/F3 EGFR-T790M/C797S/L858R
Description: Antiproliferative activity against mouse Ba/F3 EGFR-T790M/C797S/L858R cells

[4] = Potency index, ratio of Brigatinib IC50 to test compound IC50 for antiproliferative activity against mouse Ba/F3 EGFR-T790M/C797S/L858R cells; assay type: functional

Chain of Epidermal growth factor receptor (Homo sapiens, UniProt P00533, C797S/L858R/T790M) (P00533 25-1210 T790M/C797S/L858R limits assumed): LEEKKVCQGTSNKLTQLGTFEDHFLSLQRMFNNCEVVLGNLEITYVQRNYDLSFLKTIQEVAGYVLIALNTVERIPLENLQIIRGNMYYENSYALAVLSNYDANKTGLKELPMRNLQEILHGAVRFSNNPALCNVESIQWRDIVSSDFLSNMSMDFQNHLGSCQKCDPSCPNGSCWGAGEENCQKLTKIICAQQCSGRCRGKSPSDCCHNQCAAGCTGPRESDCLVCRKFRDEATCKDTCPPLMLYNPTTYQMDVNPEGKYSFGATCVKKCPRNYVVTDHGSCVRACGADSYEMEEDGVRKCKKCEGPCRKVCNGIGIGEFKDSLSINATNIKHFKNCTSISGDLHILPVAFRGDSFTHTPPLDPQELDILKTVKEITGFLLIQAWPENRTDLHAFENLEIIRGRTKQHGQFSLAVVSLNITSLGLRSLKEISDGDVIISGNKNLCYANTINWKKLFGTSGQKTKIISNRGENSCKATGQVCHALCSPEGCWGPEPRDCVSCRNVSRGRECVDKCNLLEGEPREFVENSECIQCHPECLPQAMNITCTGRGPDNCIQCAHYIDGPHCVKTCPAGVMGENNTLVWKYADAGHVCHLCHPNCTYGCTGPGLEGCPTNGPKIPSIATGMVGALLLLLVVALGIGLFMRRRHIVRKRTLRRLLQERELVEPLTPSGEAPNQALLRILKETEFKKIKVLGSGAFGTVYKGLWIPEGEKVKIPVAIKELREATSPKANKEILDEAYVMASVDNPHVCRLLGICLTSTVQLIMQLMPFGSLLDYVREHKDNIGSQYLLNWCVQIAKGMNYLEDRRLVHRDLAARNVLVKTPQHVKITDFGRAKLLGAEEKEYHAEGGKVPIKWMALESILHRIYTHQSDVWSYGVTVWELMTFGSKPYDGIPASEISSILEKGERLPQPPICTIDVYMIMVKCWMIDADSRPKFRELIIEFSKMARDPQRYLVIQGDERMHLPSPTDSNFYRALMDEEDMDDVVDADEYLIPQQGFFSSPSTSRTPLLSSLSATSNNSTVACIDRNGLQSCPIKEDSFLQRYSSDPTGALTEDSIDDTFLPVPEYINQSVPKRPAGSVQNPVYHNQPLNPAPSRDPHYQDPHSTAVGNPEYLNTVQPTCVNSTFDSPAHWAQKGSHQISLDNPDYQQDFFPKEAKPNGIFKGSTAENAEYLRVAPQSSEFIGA
Chain of Epidermal growth factor receptor (Homo sapiens), P00533 [L858R,T790M,C797S] (P00533 whole entry T790M/C797S/L858R): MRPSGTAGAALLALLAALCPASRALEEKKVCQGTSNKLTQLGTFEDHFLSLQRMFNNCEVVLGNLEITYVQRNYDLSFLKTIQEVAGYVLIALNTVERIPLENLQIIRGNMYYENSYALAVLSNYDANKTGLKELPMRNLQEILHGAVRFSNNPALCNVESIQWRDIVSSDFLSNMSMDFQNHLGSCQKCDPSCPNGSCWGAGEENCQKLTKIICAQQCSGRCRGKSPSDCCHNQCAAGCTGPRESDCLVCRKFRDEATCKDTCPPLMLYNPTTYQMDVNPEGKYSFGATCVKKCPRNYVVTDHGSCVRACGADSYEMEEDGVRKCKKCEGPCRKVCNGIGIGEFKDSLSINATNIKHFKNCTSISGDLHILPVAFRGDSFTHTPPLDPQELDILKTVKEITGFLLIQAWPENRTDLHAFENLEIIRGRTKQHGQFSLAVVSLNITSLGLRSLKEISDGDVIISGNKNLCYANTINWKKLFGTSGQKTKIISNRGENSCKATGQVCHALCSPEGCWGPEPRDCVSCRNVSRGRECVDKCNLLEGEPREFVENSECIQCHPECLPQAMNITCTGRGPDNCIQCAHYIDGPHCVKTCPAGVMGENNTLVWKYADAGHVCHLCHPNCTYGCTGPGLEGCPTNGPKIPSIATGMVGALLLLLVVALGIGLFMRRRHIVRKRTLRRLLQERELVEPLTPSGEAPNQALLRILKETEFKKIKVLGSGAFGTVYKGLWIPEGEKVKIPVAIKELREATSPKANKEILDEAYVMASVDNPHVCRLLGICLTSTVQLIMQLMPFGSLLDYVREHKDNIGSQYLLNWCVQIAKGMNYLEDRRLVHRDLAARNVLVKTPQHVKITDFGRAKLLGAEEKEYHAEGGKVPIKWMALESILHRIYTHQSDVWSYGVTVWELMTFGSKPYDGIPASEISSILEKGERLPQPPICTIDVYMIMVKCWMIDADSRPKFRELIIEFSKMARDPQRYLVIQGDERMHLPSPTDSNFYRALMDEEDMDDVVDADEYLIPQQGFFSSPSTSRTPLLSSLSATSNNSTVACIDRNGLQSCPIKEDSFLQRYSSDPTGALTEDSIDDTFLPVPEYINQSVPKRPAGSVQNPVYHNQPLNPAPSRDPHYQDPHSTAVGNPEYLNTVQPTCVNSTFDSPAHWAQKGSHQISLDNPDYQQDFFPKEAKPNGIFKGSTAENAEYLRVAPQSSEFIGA

inhibition [1] | SMILES | other results
48.8% | C=CC(=O)Nc1cnn(-c2ccnc(Nc3cc(C)c(N4CCN(C(C)=O)CC4)cc3OC)n2)c1 | –
90.2% | CCCCS(=O)(=O)Nc1cnn(-c2ccnc(Nc3cc(C)c(N4CCC(N5CCN(C)CC5)CC4)cc3OC)n2)c1 | –
81.8% | COc1cc(N2CCC(N3CCN(C)CC3)CC2)c(C)cc1Nc1ncc(Br)c(-n2ccc(-c3ccccc3NS(=O)(=O)C3CC3)n2)n1 | IC50 [2]: 0.0939 µM; IC50 [3]: > 5 µM; IC50 (cells): 0.34 µM
93.2% | COc1cc(N2CCC(N3CCN(C)CC3)CC2)c(C)cc1Nc1nccc(-n2cc(NS(=O)(=O)C3CC3)cn2)n1 | IC50 [2]: 0.0188 µM; IC50 [3]: 0.159 µM; Ratio IC50 [4]: 5; IC50 (cells): 0.0971 µM
80.4% | COc1cc(N2CCC(N3CCN(C)CC3)CC2)c(C)cc1Nc1nccc(-n2cc(NC(=O)C(C)C)cn2)n1 | –
81.9% | C/C=C/C(=O)Nc1cnn(-c2ccnc(Nc3cc(C)c(N4CCC(N5CCN(C)CC5)CC4)cc3OC)n2)c1 | –
54.3% | C=CC(=O)Nc1cnn(-c2ccnc(Nc3cc(C)c(N4CCN(S(C)(=O)=O)CC4)cc3OC)n2)c1 | –
85.4% | CCC(=O)Nc1cnn(-c2ccnc(Nc3cc(C)c(N4CCC(N5CCN(C)CC5)CC4)cc3OC)n2)c1 | –
79.9% | C=CC(=O)Nc1ccccc1-c1ccn(-c2nc(Nc3cc(C)c(N4CCC(N5CCN(C)CC5)CC4)cc3OC)ncc2Br)n1 | –
83.8% | C=C(C)C(=O)Nc1cnn(-c2ccnc(Nc3cc(C)c(N4CCC(N5CCN(C)CC5)CC4)cc3OC)n2)c1 | –
89% | CCS(=O)(=O)Nc1cnn(-c2ccnc(Nc3cc(C)c(N4CCC(N5CCN(C)CC5)CC4)cc3OC)n2)c1 | –
48.5% | C=CC(=O)Nc1cnn(-c2ccnc(Nc3cc(C)c(N4CCOCC4)cc3OC)n2)c1 | –
90.2% | COc1cc(N2CCC(N3CCN(C)CC3)CC2)c(C)cc1Nc1nccc(-n2cc(NS(=O)(=O)C(C)C)cn2)n1 | –
61.1% | C=CC(=O)Nc1cnn(-c2ccnc(Nc3cc(C)c(N4CCC(N(C)C)CC4)cc3OC)n2)c1 | –
80% | C=CC(=O)Nc1cnn(-c2ccnc(Nc3cc(C)c(N4CCC(N5CCN(C)CC5)CC4)cc3OC)n2)c1 | IC50 [2]: 0.0782 µM; IC50 [3]: 0.485 µM; IC50 (cells): 0.238 µM
47.3% | C=CC(=O)Nc1cnn(-c2ccnc(Nc3cc(C)c(N4CCN(C)CC4)cc3OC)n2)c1 | –
71.4% | CCS(=O)(=O)Nc1ccccc1-c1ccn(-c2nc(Nc3cc(C)c(N4CCC(N5CCN(C)CC5)CC4)cc3OC)ncc2Br)n1 | –
46.1% | C=CC(=O)Nc1cnn(-c2ccnc(Nc3cc(C)c(N4CCN(C(C)C)CC4)cc3OC)n2)c1 | –
88.1% | COc1cc(N2CCC(N3CCN(C)CC3)CC2)c(C)cc1Nc1nccc(-n2cc(NS(C)(=O)=O)cn2)n1 | –
82.6% | COc1cc(N2CCC(N3CCN(C)CC3)CC2)c(C)cc1Nc1nccc(-n2cc(NC(C)=O)cn2)n1 | –
75.7% | C=CC(=O)Nc1cnn(-c2ccnc(Nc3cc(C)c(N4CCC(N5CCCC5)CC4)cc3OC)n2)c1 | –
87.2% | COc1cc(N2CCC(N3CCN(C)CC3)CC2)c(C)cc1Nc1nccc(-n2cc(NC(=O)C=C(C)C)cn2)n1 | IC50 [2]: 0.0534 µM; IC50 [3]: 0.382 µM; IC50 (cells): 0.213 µM
– | COc1cc(N2CCC(N3CCN(C)CC3)CC2)ccc1Nc1ncc(Cl)c(Nc2ccccc2P(C)(C)=O)n1 [BRIGATINIB] | IC50 (cells): 0.542 µM
89.8% | COc1cc(N2CCC(N3CCN(C)CC3)CC2)c(C)cc1Nc1nccc(-n2cc(NC(=O)C3CC3)cn2)n1 | IC50 [2]: 0.0376 µM; IC50 [3]: 0.338 µM; IC50 (cells): 0.136 µM
89.1% | CCCS(=O)(=O)Nc1cnn(-c2ccnc(Nc3cc(C)c(N4CCC(N5CCN(C)CC5)CC4)cc3OC)n2)c1 | –
